Data published in ChEMBL document CHEMBL1123274, “Azasteroids: structure-activity relationships for inhibition of 5 alpha-reductase and of androgen receptor binding” (J Med Chem, 1986).

Experiments:
[1] = target: T1, Steroid 5-alpha-reductase (Rattus norvegicus, UniProt P24008+P31214); assay: In vitro inhibitory activity against rat prostatic steroid 5-alpha-reductase; type: protein assay
T1 sequence (P24008 whole entry): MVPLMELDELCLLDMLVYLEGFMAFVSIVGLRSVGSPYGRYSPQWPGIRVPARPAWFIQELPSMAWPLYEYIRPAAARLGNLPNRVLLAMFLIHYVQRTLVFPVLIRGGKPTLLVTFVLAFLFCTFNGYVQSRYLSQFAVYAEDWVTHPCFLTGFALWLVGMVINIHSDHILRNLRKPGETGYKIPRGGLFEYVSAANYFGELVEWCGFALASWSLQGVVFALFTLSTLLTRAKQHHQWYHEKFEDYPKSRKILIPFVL
T1 sequence (P31214 whole entry): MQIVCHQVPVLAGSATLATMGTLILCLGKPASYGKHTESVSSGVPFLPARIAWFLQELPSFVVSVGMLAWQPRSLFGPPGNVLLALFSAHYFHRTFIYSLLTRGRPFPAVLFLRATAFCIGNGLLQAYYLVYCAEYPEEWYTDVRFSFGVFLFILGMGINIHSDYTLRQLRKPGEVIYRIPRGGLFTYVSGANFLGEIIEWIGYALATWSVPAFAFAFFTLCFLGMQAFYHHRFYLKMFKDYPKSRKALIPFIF

Androgen receptor = target: T2, Androgen receptor (Rattus norvegicus, UniProt P15207); assay: In vitro antagonist activity against rat prostatic androgen receptor (AR)
T2 sequence (P15207 whole entry): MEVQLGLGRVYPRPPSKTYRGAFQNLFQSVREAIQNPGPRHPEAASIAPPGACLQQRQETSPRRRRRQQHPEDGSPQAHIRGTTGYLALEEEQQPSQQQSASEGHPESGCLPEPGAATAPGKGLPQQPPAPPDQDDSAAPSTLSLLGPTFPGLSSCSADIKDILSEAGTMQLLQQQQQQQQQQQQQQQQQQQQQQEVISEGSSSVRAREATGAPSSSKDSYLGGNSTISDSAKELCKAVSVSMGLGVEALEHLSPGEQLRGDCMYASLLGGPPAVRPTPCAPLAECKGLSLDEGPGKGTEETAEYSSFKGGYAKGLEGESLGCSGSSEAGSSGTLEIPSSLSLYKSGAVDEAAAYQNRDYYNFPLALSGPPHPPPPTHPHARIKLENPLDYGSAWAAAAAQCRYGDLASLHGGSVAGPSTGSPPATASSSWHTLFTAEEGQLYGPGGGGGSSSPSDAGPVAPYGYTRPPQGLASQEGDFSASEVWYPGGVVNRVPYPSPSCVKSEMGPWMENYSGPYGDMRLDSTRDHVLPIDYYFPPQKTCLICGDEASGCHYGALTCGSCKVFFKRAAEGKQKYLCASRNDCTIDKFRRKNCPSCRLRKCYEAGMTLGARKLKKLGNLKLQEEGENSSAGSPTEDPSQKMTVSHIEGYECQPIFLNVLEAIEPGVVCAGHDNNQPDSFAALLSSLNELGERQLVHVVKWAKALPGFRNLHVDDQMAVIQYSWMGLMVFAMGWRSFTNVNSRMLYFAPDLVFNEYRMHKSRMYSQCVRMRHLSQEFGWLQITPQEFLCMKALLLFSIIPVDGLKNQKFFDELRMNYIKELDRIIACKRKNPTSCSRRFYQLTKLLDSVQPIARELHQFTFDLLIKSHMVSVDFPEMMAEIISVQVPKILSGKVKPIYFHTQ

Row | SMILES | IC50 [1] [nM] | IC50 (Androgen receptor) [nM] | Ki app [1] [nM]
1 | CCN(CC)C(=O)/C=C1\CC[C@H]2[C@@H]3CCC4N(C)C(=O)CC[C@]4(C)[C@H]3CC[C@]12C (stereo partly drawn) | 2.5 | 930 | –
2 | CC(C)N(C(=O)[C@H]1CC[C@H]2[C@@H]3CCC4N(C)C(=O)C=C[C@]4(C)[C@H]3CC[C@]12C)C(C)C (stereo partly drawn) | 430 | 10000 | –
3 | CC(C)(C)NC(=O)[C@H]1CC[C@H]2[C@@H]3CC[C@H]4NC(=O)C=C[C@]4(C)[C@H]3CC[C@]12C [FINASTERIDE] | 6.8 | – | –
4 | CCN(CC)C(=O)CCC(C)[C@H]1CC[C@H]2[C@@H]3CCC4N(C)C(=O)CC[C@]4(C)[C@H]3CC[C@]12C (stereo partly drawn) | 3.4 | 430 | –
5 | COC(=O)[C@H]1CC[C@H]2[C@@H]3CC[C@H]4N(C)C(=O)C=C[C@]4(C)[C@H]3CC[C@]12C | – | 13 | –
6 | CCN(CC)C(=O)[C@H]1CCC[C@H]2[C@@H]3CC[C@H]4N(C)C(=O)OC[C@]4(C)[C@H]3CC[C@]12C | 500 | 3700 | –
7 | COC(=O)C(C)[C@H]1CC[C@H]2[C@@H]3CCC4NC(=O)C=C[C@]4(C)[C@H]3CC[C@]12C (stereo partly drawn) | – | > 100000 | –
8 | CC(C)CC(=O)[C@H]1CC[C@H]2[C@@H]3CCC4NC(=O)C=C[C@]4(C)[C@H]3CC[C@]12C (stereo partly drawn) | – | > 100000 | –
9 | CCN(CC)C(=O)[C@H]1CC[C@H]2[C@@H]3CC[C@H]4N(C)C(=O)[C@H](OC)C[C@]4(C)[C@H]3CC[C@]12C | – | > 10000 | –
10 | CC(=O)[C@H]1CC[C@H]2[C@@H]3CCC4=CC(=O)CC[C@]4(C)[C@H]3[C@H](O)C[C@]12C | – | 330 | –
11 | COC(=O)[C@H]1CC[C@H]2[C@@H]3CCC4NC(=O)CC[C@]4(C)[C@H]3CC[C@]12C (stereo partly drawn) | – | – | 133
12 | CN1C(=O)CC[C@@]2(C)C1CC[C@H]1[C@@H]3CC[C@H](C(=O)NC(C)(C)CO)[C@@]3(C)CC[C@@H]12 (stereo partly drawn) | – | 940 | –
13 | CC(C(=O)O)[C@H]1CC[C@H]2[C@@H]3CCC4NC(=O)CC[C@]4(C)[C@H]3CC[C@]12C (stereo partly drawn) | – | > 100000 | –
14 | C[C@]12C=CC(=O)N[C@@H]1CC[C@@H]1[C@@H]2CC[C@]2(C)[C@@H](C(N)=O)CC[C@@H]12 | – | > 10000 | –
15 | CCNC(=O)[C@H]1CC[C@H]2[C@@H]3CC[C@H]4N(C)C(=O)C=C[C@]4(C)[C@H]3CC[C@]12C | – | 83 | –
16 | CCN(CC)C(=O)[C@H]1CC[C@H]2[C@@H]3CC[C@H]4N(C)C(=O)[C@@H](OC)C[C@]4(C)[C@H]3CC[C@]12C | – | > 10000 | –
17 | CO[C@H]1CC(=O)NC2CC[C@H]3[C@@H]4CC[C@H](C(N)=O)[C@@]4(C)CC[C@@H]3[C@]21C (stereo partly drawn) | – | > 100000 | –
18 | CN1C(=O)C=C[C@]2(C)[C@H]3CC[C@]4(C)[C@@H](O)CC[C@H]4[C@@H]3CC[C@@H]12 | – | 2.4 | –
19 | C[C@]12CC[C@H]3[C@@H](CCC4NC(=O)CC[C@@]43C)[C@@H]1CC[C@@H]2C(N)=O (stereo partly drawn) | – | > 100000 | –
20 | CCNC(=O)[C@H]1CC[C@H]2[C@@H]3CC[C@H]4NC(=O)C=C[C@]4(C)[C@H]3CC[C@]12C | – | > 10000 | –
21 | CCN(CC)C(=O)[C@H]1CC[C@H]2[C@@H]3CC[C@H]4N(C)C(=O)[C@@H](F)C[C@]4(C)[C@H]3CC[C@]12C | – | 1800 | –
22 | CN1C(=O)C=C[C@]2(C)[C@H]3CC[C@]4(C)[C@@H](C(N)=O)CC[C@H]4[C@@H]3CC[C@@H]12 | – | 150 | –
23 | CN1C(=O)C=C[C@@]2(C)C1CC[C@H]1[C@@H]3CC[C@H](C(=O)c4ccc[nH]4)[C@@]3(C)CC[C@@H]12 (stereo partly drawn) | – | 15 | –
24 | CCCCCCCCNC(=O)[C@H]1CC[C@H]2[C@@H]3CCC4N(C)C(=O)C=C[C@]4(C)[C@H]3CC[C@]12C (stereo partly drawn) | – | 340 | –
25 | CC(C)(C)CC(C)(C)NC(=O)[C@H]1CC[C@H]2[C@@H]3CCC4NC(=O)C=C[C@]4(C)[C@H]3CC[C@]12C (stereo partly drawn) | – | > 100000 | –

Row | SMILES | IC50 [1] [nM] | IC50 (Androgen receptor) [nM] | Ki app [1] [nM]
26 | CC(C)N(C(=O)[C@H]1CC[C@H]2[C@@H]3CC=C4N(C)C(=O)CC[C@]4(C)[C@H]3CC[C@]12C)C(C)C | – | 10000 | –
27 | CC(C(=O)O)[C@H]1CC[C@H]2[C@@H]3CCC4N(C)C(=O)C=C[C@]4(C)[C@H]3CC[C@]12C (stereo partly drawn) | – | > 100000 | –
28 | CN1C(=O)CC[C@@]2(C)C1CC[C@H]1[C@@H]3CC[C@H](C(=O)C=[N+]=[N-])[C@@]3(C)CC[C@@H]12 (stereo partly drawn) | – | 580 | –
29 | C[C@]12CC[C@H]3[C@@H](CCC4NC(=O)CC[C@@]43C)[C@@H]1CC[C@@H]2C(=O)c1ccc[nH]1 (stereo partly drawn) | – | 15000 | –
30 | CCN(CC)C(=O)[C@H]1CC[C@H]2[C@@H]3CC[C@H]4NC(=O)CCC[C@]4(C)[C@H]3CC[C@]12C | – | > 10000 | –
31 | CC(C)CC(=O)[C@H]1CC[C@H]2[C@@H]3CCC4NC(=O)CC[C@]4(C)[C@H]3CC[C@]12C (stereo partly drawn) | – | > 100000 | –
32 | C[C@]12CC[C@H]3[C@@H](CCC4NC(=O)C=C[C@@]43C)[C@@H]1CC[C@@H]2C(=O)c1ccc[nH]1 (stereo partly drawn) | – | 8000 | –
33 | CC(C)N(C(=O)[C@H]1CC[C@H]2[C@@H]3CC=C4N(C)C(=O)C=C[C@]4(C)[C@H]3CC[C@]12C)C(C)C | – | 6400 | –
34 | CN1C(=O)CC[C@H]2C1CC[C@@H]1[C@@H]2CC[C@@]2(C)[C@H]1CC[C@@]21CCCO1 (stereo partly drawn) | – | 2000 | –
35 | COC(=O)C(C)[C@H]1CC[C@H]2[C@@H]3CCC4N(C)C(=O)C=C[C@]4(C)[C@H]3CC[C@]12C (stereo partly drawn) | – | 270 | –
36 | CCN(CC)C(=O)[C@H]1CC[C@H]2[C@@H]3CC[C@H]4N(C)C(=O)CCC[C@]4(C)[C@H]3CC[C@]12C | – | 600 | –
37 | COC(=O)[C@H]1CC[C@H]2[C@@H]3CC[C@H]4NC(=O)C=C[C@]4(C)[C@H]3CC[C@]12C | – | 3200 | –
38 | CN1C(=O)CC[C@H]2C1=CC[C@@H]1[C@@H]2CC[C@@]2(C)[C@H]1CC[C@@]21CCCO1 (stereo in doubt; 74) | – | 240 | –
39 | C[C@]12C=CC(=O)N[C@@H]1CC[C@@H]1[C@@H]2CC[C@]2(C)[C@@H](O)CC[C@@H]12 | – | 170 | –
40 | CC(C(=O)O)[C@H]1CC[C@H]2[C@@H]3CCC4NC(=O)C=C[C@]4(C)[C@H]3CC[C@]12C (stereo partly drawn) | – | > 100000 | –
41 | CCN(CC)C(=O)[C@H]1CCC[C@H]2[C@@H]3CC[C@H]4N(C)C(=O)CC[C@]4(C)[C@H]3CC[C@]12C | – | 7100 | –
42 | CN1C(=O)CC[C@H]2C1=CC[C@@H]1[C@@H]2CC[C@@]2(C)[C@H]1CC[C@@]21CCCO1 (stereo in doubt; 75) | – | 150 | –
43 | CN1C(=O)CC[C@@]2(C)C1=CC[C@H]1[C@@H]3CC[C@H](O)[C@@]3(C)CC[C@@H]12 | – | 7.4 | –
44 | C[C@]12CC[C@H]3[C@@H](CCC4NC(=O)C=C[C@@]43C)[C@@H]1CC[C@@H]2C(=O)Sc1ccccn1 (stereo partly drawn) | – | > 10000 | –
45 | CN1C(=O)C=C[C@@]2(C)C1CC[C@H]1[C@@H]3CC[C@H](C(=O)Sc4ccccn4)[C@@]3(C)CC[C@@H]12 (stereo partly drawn) | – | 100 | –
46 | CCN(CC)C(=O)[C@H]1CC[C@H]2[C@@H]3CC[C@H]4N(C)C(=O)[C@@H]5O[C@@H]5[C@]4(C)[C@H]3CC[C@]12C | – | 710 | –
47 | CCN(CC)C(=O)[C@H]1CC[C@H]2[C@@H]3CC[C@H]4N(CC)C(=O)CC[C@]4(C)[C@H]3CC[C@]12C | – | 32000 | –
48 | CN1C(=O)CC[C@@]2(C)C1CC[C@H]1[C@@H]3CC[C@H](C(=O)c4ccc[nH]4)[C@@]3(C)CC[C@@H]12 (stereo partly drawn) | – | 89 | –
49 | CCCCCNC(=O)[C@H]1CC[C@H]2[C@@H]3CCC4N(C)C(=O)CC[C@]4(C)[C@H]3CC[C@]12C (stereo partly drawn) | – | 250 | –
